Measurements: patent publication US20220354764A1, “METHODS FOR PROMOTING HAIR GROWTH” (Follica, Inc., priority 2018, published 2022)

Key:
[1] = Minoxidil blood serum concentration after needling device treatment plus 2%/5% MTS (Example 1); assay type: in vivo, human
Experimental: A multicenter randomized study was conducted to assess the safety and efficacy of treatment methods using a needling device in conjunction with minoxidil in adult males with androgenetic alopecia (AGA). The study involved 14 subjects, male, age 18-40 years, with a diagnosis of androgenetic alopecia. Data for 46 additional subjects is being gathered. The subjects were randomized and then completed treatment across 12 weeks (total of 3, 6, or 12 treatments with the needling device per randomization assignment, n=20 per arm). A final evaluation was conducted on Day 85 with no additional follow up required.
On Day 0, subjects were randomized to receive treatment with the needling device on a weekly (12 treatments), bi-weekly (6 treatments), or monthly (once every 4 weeks, for 3 total treatments) basis for 12 weeks, in a 1:1:1 ratio according to a centrally maintained randomization table. Treatment of the vertex (including transitional areas) with the needling device was initiated on Day 1.
Subjects in the monthly arm received needling device treatment once every 4 weeks, for 3 procedures total (e.g., needling device treatment on Days 1, 29, 57). Subjects in the bi-weekly arm received needling device treatment once every 2 weeks, for 6 procedures total (e.g., needling device treatment on Days 1, 15, 29, 43, 57, and 71). Subjects in the weekly arm received needling device treatment once every week, for 12 procedures total (e.g., needling device treatment on Days 1, 8, 15, 22, 29, 36, 43, 50, 57, 64, 71, and 78).
During needling treatments, the translation speed of the device, which is the speed at which the needling device was glided over the affected skin area, was 2 cm/second, while keeping the device perpendicular to the surface to help achieve a needle strike of 0.8 mm (+/−0.2 mm) micro-needling depth. The device needle array has 12 needles and the number of array oscillations per second was set at 120. The treatment width was 0.9 cm. Two overlapping passes were made in vertical and horizontal directions. As a result, 1600 needle strikes per cm^2 were performed. The micro-needling device was glided across the affected area of the skin such that each pass across the area of skin aligned with the prior pass across the skin, without gaps of skin between the passes, in a “mow the lawn” approach. Each pass of the micro-needling device started with a gliding start and a smooth retraction of the device from the skin area following each pass. The micro-needling device was applied to the skin area with consistent, light pressure, allowing the device to glide along the skin. The configuration of needles in the needle array consists of 2 offset rows of 6 microneedles.
A post-treatment visit was required following each subject's first treatment with the needling device across all study arms to confirm wound closure. The post-treatment visit was performed 24-36 hours following the first treatment with the needling device. If adequate wound closure and skin normality was not achieved, the subject would return for a second post-treatment visit 24-36 hours following the first post-treatment visit. Once adequate wound closure was confirmed, subjects were provided study drug to be applied in accordance with the instructions provided herein (vertex, including transitional areas). The very first application of study drug was performed in-clinic during the first post-treatment visit in which wound closure is confirmed. […]

[2] = system: adult males with androgenetic alopecia (AGA); test: Hair count by macrophotography after needling device treatment plus minoxidil (Example 1); assay type: in vivo, human; conditions: needling device plus 2%/5% MTS, 12 weeks; comparison: 12% increase in Olsen 2002 and 2007
From the text: A macrophotography procedure as referred to herein includes identifying the designated photography site, clipping hair within targeted photography site to a length of 1 mm, and creating a needlestick tattoo in the center of the targeted photography site for future orientation (pressure was applied until any bleeding stops), mapping the position of the tattoo, and recording the measurements on the provided documentation. The procedure further includes using the tattoo as a reference point take the first Baseline photograph without the contact plate, and again, using the tattoo as a reference point, performing remaining Baseline photography with the contact plate. From the identified designated photography site, the width of each hair is determined using an electronic caliber measurement. All hairs greater than […] are classified as terminal hairs. […]
A macrophotography procedure as described above was carried out for each subject, using a single, circular 1.9 cm^2 site in the leading edge of an actively balding area of the vertex as the designated photography site. Total Area Hair Count (TAHC), Target Area Hair Width (TAHW) and Target Area Hair Density/Darkness (TAHD) were assessed via quantitative image analysis to determine non-vellus hair count (primary and secondary endpoint) and total hair count (non-vellus and vellus hair, secondary endpoint). […]

Structure (SMILES): Nc1cc(N2CCCCC2)nc(N)[n+]1[O-] [minoxidil]
- serum level average, Day 1 ([1]; Day 1, needling device plus MTS regimen): 1.29 ng/mL
- serum level average, Day 29 ([1]; Day 29, needling device plus MTS regimen): 0.99 ng/mL
- serum level average, Day 57 ([1]; Day 57, needling device plus MTS regimen): 0.79 ng/mL
- serum level average, Day 85 ([1]; Day 85, final study visit, needling device plus MTS regimen): 0.65 ng/mL
- maximum serum level recorded in the study ([1]; individual maximum, needling device plus 2%/5% MTS step-up): 5.5 ng/mL
- subjects showing an increase in non-vellus target area hair count greater than prior large minoxidil studies [2]: 79%
